Test results from patent publication US9073855B2, “BCL-2 selective apoptosis-inducing agents for the treatment of cancer and immune diseases” (AbbVie Inc., priority 2008, dated 2015).
pEC50, pKi: −log10 of the molar value.

Assays:
GST-Bcl-XL = GST-Bcl-XL (Homo sapiens, UniProt Q07817); assay: TR-FRET binding assay, GST-Bcl-XL with F-Bak peptide probe; details: TR-FRET Binding Affinity, GST-Bcl-XL, F-Bak peptide probe
Summary of the method: (§1)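 Displacement of a fluorescein-labelled Bak peptide from the GST-tagged protein was followed by time-resolved FRET with a terbium anti-GST donor after 3 h incubation at room temperature. Inhibition constants were calculated with Wang's equation.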

FL5.12/Bcl-2 cells = assay: FL5.12/Bcl-2 cell viability assay under IL-3 withdrawal (CellTitre Glo); assay type: cell-based, murine; details: Mus musculus, IL-3 withdrawn 48 hrs, then 24 hrs with compound
Summary of the method: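 Viability measured by CellTitre Glo after FL5.12/Bcl-2 murine cells, starved of IL-3 for 48 hrs, were treated with compounds for another 24 hrs. Killing reflects inhibition of Bcl-2 sequestration of Bim and Puma.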

Canine platelets = assay: Platelet cell viability assay (platelet-rich plasma, Cell Titer Glo); assay type: cell-based; details: Canis lupus familiaris, 5 h, isolated canine platelets ex vivo, five hours at 37° C.
Summary of the method: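 Isolated canine platelets were incubated ex vivo with a range of compound concentrations. After 20 min equilibration at room temperature, viability was measured by Cell Titer Glo luminescence.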

GST-Bcl-2 = GST-Bcl-2 (Homo sapiens, UniProt P10415); assay: TR-FRET binding assay, GST-Bcl-2 with F-Bak peptide probe; details: TR-FRET Binding Affinity, GST-Bcl-2, F-Bak peptide probe
GST-Bcl-2, sequence (P10415 whole entry): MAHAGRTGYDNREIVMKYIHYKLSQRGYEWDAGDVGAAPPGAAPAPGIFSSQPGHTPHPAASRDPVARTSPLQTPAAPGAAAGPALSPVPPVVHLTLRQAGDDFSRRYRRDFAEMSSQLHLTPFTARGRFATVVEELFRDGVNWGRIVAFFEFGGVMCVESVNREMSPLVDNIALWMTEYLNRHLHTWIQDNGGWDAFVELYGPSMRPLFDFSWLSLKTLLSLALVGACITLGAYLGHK
Summary of the method: as §1

GST-Bcl-XL, sequence (Q07817 whole entry): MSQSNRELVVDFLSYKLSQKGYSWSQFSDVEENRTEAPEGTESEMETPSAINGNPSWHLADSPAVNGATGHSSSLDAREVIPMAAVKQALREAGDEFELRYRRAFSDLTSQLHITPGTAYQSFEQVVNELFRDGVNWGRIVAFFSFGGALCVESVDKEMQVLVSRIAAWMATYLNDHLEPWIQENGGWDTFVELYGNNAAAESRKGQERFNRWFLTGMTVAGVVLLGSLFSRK

| SMILES | pKi (GST-Bcl-XL) | pEC50 (FL5.12/Bcl-2 cells) | pEC50 (Canine platelets) | pKi (GST-Bcl-2) |
| --- | --- | --- | --- | --- |
| O=C(NS(=O)(=O)c1ccc(NCC2CCOCC2)c([N+](=O)[O-])c1)c1ccc(N2CCN(Cc3cc(OCCN4CCCC4)ccc3-c3ccc(Cl)cc3)CC2)cc1Oc1ccccc1 [Example 138, 4-(4-{[4′-chloro-4-(2-pyrrolidin-1-ylethoxy)-1,1′-biphenyl-2-yl]methyl}piperazin-1-yl)-N-({3-nitro-4-[(tetrahydro-2H-pyran-4-ylmethyl)amino]phenyl}sulfonyl)-2-phenoxybenzamide] | 8.29 | 7.54 | 4.75 | 11.05 |
| CN(C)CCOc1ccc(-c2ccc(Cl)cc2)c(CN2CCN(c3ccc(C(=O)NS(=O)(=O)c4ccc(NC5CCN(C)CC5)c([N+](=O)[O-])c4)c(Oc4ccccc4)c3)CC2)c1 [Example 133, 4-[4-({4′-chloro-4-[2-(dimethylamino)ethoxy]-1,1′-biphenyl-2-yl}methyl)piperazin-1-yl]-N-({4-[(1-methylpiperidin-4-yl)amino]-3-nitrophenyl}sulfonyl)-2-phenoxybenzamide] | 9.55 | 7.70 | 7.02 | 11.05 |
| O=C(NS(=O)(=O)c1ccc(NCCCN2CCCC2)c([N+](=O)[O-])c1)c1ccc(N2CCN(CC3=C(c4ccc(Cl)cc4)CCCCCC3)CC2)cc1Oc1cccc2[nH]ccc12 [Example 142, 4-(4-{[2-(4-chlorophenyl)cyclooct-1-en-1-yl]methyl}piperazin-1-yl)-2-(1H-indol-4-yloxy)-N-({3-nitro-4-[(3-pyrrolidin-1-ylpropyl)amino]phenyl}sulfonyl)benzamide] | 6.99 | 6.57 | < 4.30 | 8.44 |
| O=C(NS(=O)(=O)c1ccc(NCC2CCOCC2)c([N+](=O)[O-])c1)c1ccc(N2CCN(Cc3c(OCCN4CCOCC4)cccc3-c3ccc(Cl)cc3)CC2)cc1Oc1ccc2[nH]ccc2c1 [Example 132, 4-(4-{[4′-chloro-3-(2-morpholin-4-ylethoxy)-1,1′-biphenyl-2-yl]methyl}piperazin-1-yl)-2-(1H-indol-5-yloxy)-N-({3-nitro-4-[(tetrahydro-2H-pyran-4-ylmethyl)amino]phenyl}sulfonyl)benzamide] | 6.50 | 7.38 | < 4.30 | 9.26 |
| O=C(NS(=O)(=O)c1ccc(NCC2CCOCC2)c([N+](=O)[O-])c1)c1ccc(N2CCN(Cc3cc(CCN4CCCC4)ccc3-c3ccc(Cl)cc3)CC2)cc1Oc1cccc2[nH]ccc12 [Example 25, 4-(4-{[4′-chloro-4-(2-pyrrolidin-1-ylethyl)-1,1′-biphenyl-2-yl]methyl}piperazin-1-yl)-2-(1H-indol-4-yloxy)-N-({3-nitro-4-[(tetrahydro-2H-pyran-4-ylmethyl)amino]phenyl}sulfonyl)benzamide] | 6.69 | 7.31 | < 4.30 | 10.30 |
| CC1(C)CCC(CN2CCN(c3ccc(C(=O)NS(=O)(=O)c4ccc(NCCCN5CCOCC5)c([N+](=O)[O-])c4)c(Oc4ccccc4)c3)CC2)=C(c2ccc(Cl)cc2)C1 [Example 18, 4-(4-{[2-(4-chlorophenyl)-4,4-dimethylcyclohex-1-en-1-yl]methyl}piperazin-1-yl)-N-({4-[(3-morpholin-4-ylpropyl)amino]-3-nitrophenyl}sulfonyl)-2-phenoxybenzamide] | 8.09 | 6.91 | 4.53 | 9.62 |
| CN1CCC(Nc2ccc(S(=O)(=O)NC(=O)c3ccc(N4CCN(CC5=C(c6ccc(Cl)cc6)CC(C)(C)OC5)CC4)cc3Oc3ccc4[nH]ccc4c3)cc2[N+](=O)[O-])CC1 [Example 150, 4-(4-{[4-(4-chlorophenyl)-6,6-dimethyl-5,6-dihydro-2H-pyran-3-yl]methyl}piperazin-1-yl)-2-(1H-indol-5-yloxy)-N-({4-[(1-methylpiperidin-4-yl)amino]-3-nitrophenyl}sulfonyl)benzamide] | 8.03 | 8.22 | 5.54 | 10.85 |
| O=C(NS(=O)(=O)c1ccc(NCC2CCOCC2)c([N+](=O)[O-])c1)c1ccc(N2CCN(Cc3ccccc3-c3ccc(Cl)cc3)CC2)cc1Oc1ccc2c(c1)CCN2 [Example 140, 4-{4-[(4′-chloro-1,1′-biphenyl-2-yl)methyl]piperazin-1-yl}-2-(2,3-dihydro-1H-indol-5-yloxy)-N-({3-nitro-4-[(tetrahydro-2H-pyran-4-ylmethyl)amino]phenyl}sulfonyl)benzamide] | < 6.18 | 5.67 | < 4.30 | 8.33 |
| CN(C)CCCNc1ccc(S(=O)(=O)NC(=O)c2ccc(N3CCN(CC4=C(c5ccc(Cl)cc5)CC(C)(C)CC4)CC3)cc2Oc2ccc3[nH]ccc3c2)cc1S(=O)(=O)C(F)(F)F [Example 170, 4-(4-{[2-(4-chlorophenyl)-4,4-dimethylcyclohex-1-en-1-yl]methyl}piperazin-1-yl)-N-({4-{[3-(dimethylamino)propyl]amino}-3-[(trifluoromethyl)sulfonyl]phenyl}sulfonyl)-2-(1H-indol-5-yloxy)benzamide] | 8.42 | 7.82 | 5.13 | 9.90 |
| CN1CCC(Nc2ccc(S(=O)(=O)NC(=O)c3ccc(N4CCN(CC5=C(c6ccc(Cl)cc6)CCCC5)CC4)cc3Oc3cccc4[nH]ccc34)cc2[N+](=O)[O-])CC1 [Example 149, 4-(4-{[2-(4-chlorophenyl)cyclohex-1-en-1-yl]methyl}piperazin-1-yl)-2-(1H-indol-4-yloxy)-N-({4-[(1-methylpiperidin-4-yl)amino]-3-nitrophenyl}sulfonyl)benzamide] | < 6.18 | 7.89 | 4.78 | 9.58 |
| CN(C)CCCNc1ccc(S(=O)(=O)NC(=O)c2ccc(N3CCN(Cc4ccccc4-c4ccc(Cl)cc4)CC3)cc2Oc2cccc3[nH]ccc23)cc1[N+](=O)[O-] [Example 46, 4-{4-[(4′-chloro-1,1′-biphenyl-2-yl)methyl]piperazin-1-yl}-N-[(4-{[3-(dimethylamino)propyl]amino}-3-nitrophenyl)sulfonyl]-2-(1H-indol-4-yloxy)benzamide] | 7.72 | 7.39 | 4.52 | 9.80 |
| CC(C)N(CCOc1ccc(-c2ccc(Cl)cc2)c(CN2CCN(c3ccc(C(=O)NS(=O)(=O)c4ccc(NCC5CCOCC5)c([N+](=O)[O-])c4)c(Oc4ccccc4)c3)CC2)c1)C(C)C [Example 139, 4-[4-({4′-chloro-4-[2-(diisopropylamino)ethoxy]-1,1′-biphenyl-2-yl}methyl)piperazin-1-yl]-N-({3-nitro-4-[(tetrahydro-2H-pyran-4-ylmethyl)amino]phenyl}sulfonyl)-2-phenoxybenzamide] | 7.98 | 7.34 | 4.41 | 10.00 |
| CN(C)CCCNc1ccc(S(=O)(=O)NC(=O)c2ccc(N3CCN(Cc4ccccc4-c4ccc(Cl)cc4)CC3)cc2Oc2ccc3ccccc3c2)cc1[N+](=O)[O-] [Example 166, 4-{4-[(4′-chloro-1,1′-biphenyl-2-yl)methyl]piperazin-1-yl}-N-[(4-{[3-(dimethylamino)propyl]amino}-3-nitrophenyl)sulfonyl]-2-(2-naphthyloxy)benzamide] | 8.49 | 6.82 | < 4.30 | 9.34 |
| O=C(NS(=O)(=O)c1ccc(NCC2CCOCC2)c([N+](=O)[O-])c1)c1ccc(N2CCN(Cc3cc(CN4CCCC4)ccc3-c3ccc(Cl)cc3)CC2)cc1Oc1cccc2[nH]ccc12 [Example 24, 4-(4-{[4′-chloro-4-(pyrrolidin-1-ylmethyl)-1,1′-biphenyl-2-yl]methyl}piperazin-1-yl)-2-(1H-indol-4-yloxy)-N-({3-nitro-4-[(tetrahydro-2H-pyran-4-ylmethyl)amino]phenyl}sulfonyl)benzamide] | < 6.18 | 7.26 | < 4.30 | 9.71 |
| CC1(C)CCC(CN2CCN(c3ccc(C(=O)NS(=O)(=O)c4ccc(NCCCN5CCCC5)c([N+](=O)[O-])c4)c(Oc4ccc5[nH]ccc5c4)c3)CC2)=C(c2ccc(Cl)cc2)C1 [Example 97, 4-(4-{[2-(4-chlorophenyl)-4,4-dimethylcyclohex-1-en-1-yl]methyl}piperazin-1-yl)-2-(1H-indol-5-yloxy)-N-({3-nitro-4-[(3-pyrrolidin-1-ylpropyl)amino]phenyl}sulfonyl)benzamide] | 8.58 | 7.89 | 4.85 | 10.57 |
| CN(C)CCCNc1ccc(S(=O)(=O)NC(=O)c2ccc(N3CCN(CC4=C(c5ccc(Cl)cc5)CC(C)(C)CC4)CC3)cc2Oc2cccc3[nH]ccc23)cc1[N+](=O)[O-] [Example 57, 4-(4-{[2-(4-chlorophenyl)-4,4-dimethylcyclohex-1-en-1-yl]methyl}piperazin-1-yl)-N-[(4-{[3-(dimethylamino)propyl]amino}-3-nitrophenyl)sulfonyl]-2-(1H-indol-4-yloxy)benzamide] | 8.33 | 7.80 | 4.77 | 10.17 |
| CC1(C)CCC(c2ccc(Cl)cc2)=C(CN2CCN(c3ccc(C(=O)NS(=O)(=O)c4ccc(NCCCN5CCOCC5)c([N+](=O)[O-])c4)c(Oc4cccc5[nH]ccc45)c3)CC2)C1 [Example 54, 4-(4-{[2-(4-chlorophenyl)-5,5-dimethylcyclohex-1-en-1-yl]methyl}piperazin-1-yl)-2-(1H-indol-4-yloxy)-N-({4-[(3-morpholin-4-ylpropyl)amino]-3-nitrophenyl}sulfonyl)benzamide] | 7.09 | 7.19 | < 4.30 | 9.12 |
